Starred links: 1 amine or outer side, 2 acyl side, 3 side chain; linkers in the order of their positions; H or OH if unused. Positions of bridges follow the written chain, without caps; N, C: chain ends. Non-standard residues stand in square brackets, D forms with d. Residues, ends and D or L forms follow the SMILES beside them. *: point of attachment. hPhe(3,5-F2-4-CF3) = N[C@@H](CCc1cc(F)c(C(F)(F)F)c(F)c1)C(=O)O; hPhe(3-Cl-4-CF3) = N[C@@H](CCc1ccc(C(F)(F)F)c(Cl)c1)C(=O)O; ACHC(1R,2R) = O=C([C@@H]1CCCC[C@H]1N[*:1])[*:2]; NMePhe(4-CN) = CN[C@@H](Cc1ccc(C#N)cc1)C(=O)O; NEtPhe(4-Me) = CCN[C@@H](Cc1ccc(C)cc1)C(=O)O; NMePhe(4-Me) = CN[C@@H](Cc1ccc(C)cc1)C(=O)O; NMeGly(cPent) = CN[C@H](C(=O)O)C1CCCC1; Phe(3-I) = N[C@@H](Cc1cccc(I)c1)C(=O)O; Phe(2-F) = N[C@@H](Cc1ccccc1F)C(=O)O; NMe3Pal = CN[C@@H](Cc1cccnc1)C(=O)O; NMeCha = CN[C@@H](CC1CCCCC1)C(=O)O; NMeGly(cPr) = CN[C@H](C(=O)O)C1CC1; Ala(cPr) = N[C@@H](CC1CC1)C(=O)O; NMeI = CC[C@H](C)[C@H](NC)C(=O)O; NMeD = CN[C@@H](CC(=O)O)C(=O)O; NMeL = CN[C@@H](CC(C)C)C(=O)O; NMeV = CN[C@H](C(=O)O)C(C)C; d(β3hA) = C[C@@H](N)CC(=O)O; dPip = O=C(O)[C@H]1CCCCN1; NMeA = CN[C@@H](C)C(=O)O; NMeAib = CNC(C)(C)C(=O)O; Piperidide = C1CCN(*)CC1; Ac5c = NC1(C(=O)O)CCCC1; Aze = O=C(O)[C@@H]1CCN1; Sar = CNCC(=O)O
biological target: T1, Kras and SOS1 (biotin-tagged human Kras loaded with GDP, His-tagged human SOS1) (Homo sapiens, UniProt P01116, G12D); assay: Protein-protein interaction inhibition between Kras and SOS1 (KrasGl2D-SOS PPI) using AlphaScreen; type: binding; conditions: AlphaScreen; biotin-tagged human Kras loaded with GDP, His-tagged human SOS1; read-out: KRAS G12D-SOS PPI IC50
T1 construct: made in house; host or cells: E. coli (stated for Kras only)
T1 sequence (P01116 1-188 isoform P01116-2 G12D): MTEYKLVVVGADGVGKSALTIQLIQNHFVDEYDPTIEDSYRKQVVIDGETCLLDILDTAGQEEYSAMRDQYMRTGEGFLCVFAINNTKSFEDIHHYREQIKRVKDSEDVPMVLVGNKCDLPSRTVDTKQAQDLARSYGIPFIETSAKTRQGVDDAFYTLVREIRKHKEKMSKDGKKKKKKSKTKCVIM
Procedure, shortened: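 Donor beads (nickel) hold His-SOS1; acceptor beads (streptavidin) hold biotin-Kras bound to GDP. Signal measured at 520-620 nm following 680 nm excitation.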

Question: With `CC(C)C[C@H]1C(=O)N[C@@H](CC2CC2)C(=O)N(C)CC(=O)N(C)CC(=O)N(C)[C@@H](CC2CCCCC2)C(=O)N(C)CC(=O)N[C@@H](CCc2ccc(C(F)(F)F)c(Cl)c2)C(=O)N2CCC[C@H]2C(=O)NC2(CCCC2)C(=O)N(C)[C@@H](C(C)C)C(=O)N[C@H](C)CC(=O)N1C` [Compound 550] (cyclo([Ac5c][NMeV][d(β3hA)][NMeL][Ala(cPr)][Sar][Sar][NMeCha][Sar][hPhe(3-Cl-4-CF3)]P)) as the compound, how does the IC50 read?
Answer: 110 nM

Question: Which IC50 does the source give for `CC[C@H](C)[C@@H]1NC(=O)[C@H](C)N(C)C(=O)C[C@@H](C(=O)N2CCCCC2)N(C)C(=O)[C@H](C(C)C)N(C)C(=O)C2(CCCC2)NC(=O)[C@@H]2CCCN2C(=O)[C@H](CCc2ccc(C(F)(F)F)c(Cl)c2)NC(=O)[C@H]2CCCCN2C(=O)[C@H](CC2CCCCC2)N(C)C(=O)[C@@H]2CCN2C(=O)CN(C)C1=O` [Compound 553] ([NMeA]I[Sar][Aze][NMeCha][dPip][hPhe(3-Cl-4-CF3)]P[Ac5c][NMeV][NMeD]-Piperidide; lactam N-11) here?
Answer: 27 nM

Question: How did the IC50 turn out when `CC[C@H](C)[C@@H]1NC(=O)[C@H](CC(C)C)N(C)C(=O)C[C@@H](C(=O)N2CCCCC2)N(C)C(=O)[C@H](CC(C)C)NC(=O)C(C)(C)N(C)C(=O)[C@H](Cc2ccccc2F)NC(=O)[C@H](Cc2cccc(I)c2)NC(=O)CN(C)C(=O)[C@H](Cc2ccc(C)cc2)N(C)C(=O)CN(C)C(=O)CN(C)C1=O` [Compound 556] ([NMeL]I[Sar][Sar][NMePhe(4-Me)][Sar][Phe(3-I)][Phe(2-F)][NMeAib]L[NMeD]-Piperidide; lactam N-11) was run?
Answer: 30 nM

Question: `CC[C@H](C)[C@@H]1NC(=O)[C@H](CC(C)C)N(C)C(=O)C[C@@H](C(=O)N(C)C)N(C)C(=O)[C@H]([C@@H](C)CC)N(C)C(=O)[C@H](C)NC(=O)[C@H](Cc2cccnc2)N(C)C(=O)[C@H](CCc2ccc(C(F)(F)F)c(Cl)c2)NC(=O)CN(C)C(=O)[C@H](Cc2ccc(C)cc2)N(C)C(=O)[C@@H]2CCN2C(=O)[C@H](C)N(C)C1=O` [Compound 557] ([NMeL]I[NMeA][Aze][NMePhe(4-Me)][Sar][hPhe(3-Cl-4-CF3)][NMe3Pal]A[NMeI][NMeD]-NMe2; lactam N-11) was tested. Which IC50 did it give?
Answer: 4.4 nM

Question: How did the IC50 turn out when `CC[C@H](C)[C@@H]1NC(=O)[C@H](CC(C)C)N(C)C(=O)C[C@@H](C)NC(=O)[C@H](C(C)C)N(C)C(=O)C2(CCCC2)NC(=O)[C@@H]2CCCN2C(=O)[C@H](CCc2ccc(C(F)(F)F)c(Cl)c2)NC(=O)CN(C)C(=O)[C@H](Cc2ccc(C#N)cc2)N(C)C(=O)CN(C)C(=O)CN(C)C1=O` [Compound 564] (cyclo([Ac5c][NMeV][d(β3hA)][NMeL]I[Sar][Sar][NMePhe(4-CN)][Sar][hPhe(3-Cl-4-CF3)]P)) was run?
Answer: 9.6 nM

Question: Which IC50 does the source give for `CC[C@H](C)[C@@H]1NC(=O)[C@H](C2CC2)N(C)C(=O)C[C@@H](C)NC(=O)[C@H](C(C)C)N(C)C(=O)C2(CCCC2)NC(=O)[C@@H]2CCCN2C(=O)[C@H](CCc2ccc(C(F)(F)F)c(Cl)c2)NC(=O)CN(C)C(=O)[C@H](CC2CCCCC2)N(C)C(=O)[C@@H]2CCN2C(=O)[C@H](C)N(C)C1=O` [Compound 565] (cyclo([Ac5c][NMeV][d(β3hA)][NMeGly(cPr)]I[NMeA][Aze][NMeCha][Sar][hPhe(3-Cl-4-CF3)]P)) here?
Answer: 55 nM

Question: How did the IC50 turn out when `CC[C@H](C)[C@@H]1NC(=O)[C@H](CC(C)C)NC(=O)[C@@H]2CCCC[C@H]2NC(=O)[C@H](C(C)C)N(C)C(=O)C2(CCCC2)NC(=O)[C@@H]2CCCN2C(=O)[C@H](CCc2ccc(C(F)(F)F)c(Cl)c2)NC(=O)CN(C)C(=O)[C@H](CC2CCCCC2)N(C)C(=O)CN(C)C(=O)CN(C)C1=O` [Compound 569] (cyclo([Ac5c][NMeV][ACHC(1R,2R)]LI[Sar][Sar][NMeCha][Sar][hPhe(3-Cl-4-CF3)]P)) was run?
Answer: 73 nM

Question: Which IC50 does the source give for `CC[C@H](C)[C@@H]1NC(=O)[C@H](C2CCCC2)N(C)C(=O)C[C@@H](C)NC(=O)[C@H](C(C)C)N(C)C(=O)C2(CCCC2)NC(=O)[C@@H]2CCCN2C(=O)[C@H](CCc2ccc(C(F)(F)F)c(Cl)c2)NC(=O)CN(C)C(=O)[C@H](CC2CCCCC2)N(C)C(=O)[C@@H]2CCN2C(=O)[C@H](C)N(C)C1=O` [Compound 570] (cyclo([Ac5c][NMeV][d(β3hA)][NMeGly(cPent)]I[NMeA][Aze][NMeCha][Sar][hPhe(3-Cl-4-CF3)]P)) here?
Answer: 27 nM

Question: With `CC[C@H](C)[C@@H]1NC(=O)[C@H](CC(C)C)N(C)C(=O)C[C@@H](C(=O)N(C)C)N(C)C(=O)[C@H]([C@@H](C)CC)N(C)C(=O)C2(CCCC2)NC(=O)[C@@H]2CCCN2C(=O)[C@H](CCc2cc(F)c(C(F)(F)F)c(F)c2)NC(=O)CN(C)C(=O)[C@H](Cc2ccc(C)cc2)N(CC)C(=O)[C@@H]2CCN2C(=O)[C@H](C)N(C)C1=O` [Compound 571] ([NMeL]I[NMeA][Aze][NEtPhe(4-Me)][Sar][hPhe(3,5-F2-4-CF3)]P[Ac5c][NMeI][NMeD]-NMe2; lactam N-11) as the compound, how does the IC50 read?
Answer: 0.83 nM
